Test results taken from PubChem BioAssay AID1963827 (Molecular Pharmacology Branch, DTP, NCI, 2024).

Test system: 994946-033-R-J1-PDC complex spheroid viability
Assay: Anticancer human tumor 994946-033-R-J1-PDC patient-derived melanoma cell line growth inhibition [POLQ]
Settings: for IC50: curve of first compound; for viability, T/C: stronger effect = lower value
Protocol: Multicellular complex tumor spheroid response to Polymerase (POL) inhibitors (novobiocin, ART-558, RP6685) in combination with a variety of drugs and investigational agents in selected tumor cell lines
The POL inhibitors (novobiocin, ART-558, and RP6685) were evaluated both individually and in combination with standard of care and investigational anticancer small molecules within a complex spheroid model of solid tumors. . Complex spheroids include a stromal component modeled by human endothelial cells (HUVEC) and fibroblasts modeled by human mesenchymal stem cells (MSCs). The concentration ranges selected for each drug and investigational agent were based upon clinically achievable concentrations if the clinical Cmax of the agent was known.
Compounds. The drugs and investigational agents: novobiocin (NSC847541), ART-558 (NSC835418), RP-6685 (NSC848927), peposertib (NSC802822), ceralasertib (NSC780249), elimusertib (NSC800525), camonsertib (NSC841442), AZD-1390 (NSC803789), olaparib (NSC753686), talazoparib (NSC767125), rucaparib (NSC756644), sotorasib (NSC818433), MRTX-1133 (NSC836407), SN-38 (NSC673596), topotecan (NSC609699), epotoside (NSC141540), doxorubicin (NSC123127), gemcitabine (NSC613327), 5-fluorouracil (NSC19893), paclitaxel (NSC125973), vemurafenib (NSC761431), MSA-2 (NSC828583), SN-011 (NSC837082), adavosertib (NSC754352), prexasertib (NSC758257), carboplatin (NSC241240) and oxaliplatin (NSC266046), were obtained from the National Cancer Institute (NCI) Developmental Therapeutics Program Chemical Repository (21). The FDA-approved anticancer drug set is available from the Developmental Therapeutics Program at https://dtp.cancer.gov/organization/dscb/obtaining/. […] The stock solutions were prepared in dimethyl sulfoxide (DMSO, Sigma-Aldrich, St. Louis, MO, cat. D2650), except for the platinum compounds which were prepared in saline (Quality Biological, Gaithersburg, MD, cat. 114-055-101), at 800-fold the tested concentration and stored at -70 degrees C prior to their use. All drugs and investigational agents were tested over a range starting from a high concentration at or near the clinical Cmax and decreasing in half-log increments. If the clinical Cmax for an agent had not been determined, the highest concentration tested was 10 microM, except for SN-38, which was tested at a high concentration of 1 microM.
Cell Culture. All cells were maintained in an incubator at 37 degrees C and 5% CO2 with 95% humidity. The PDC lines were cultured according to standard operating procedures established by the NCI PDMR (https://pdmr.cancer.gov). Table 3 of the manuscript, lists the cell lines along with the number of the three cell types plated to form the mct-spheroids and media for tumor cell growth. After thawing, all PDC lines, except 997537-175-T-J1-PDC and 415267-285-R-J2-PDC, were cultured in Matrigel-coated flasks prepared with a working solution of 1X Ham's F-12 nutrient mix, without supplementation (Thermo Fisher Scientific, cat. 11765054), 100 U/mL penicillin-streptomycin (Thermo Fisher Scientific, cat. 15140122), and 2.5% Matrigel (Corning Inc., Corning, NY, cat. 354248) for the first three passages. The two PDC lines 997537-175-T-J1-PDC and 415267-285-R-J2-PDC were cultured on uncoated flasks. The 857933-349-R-J2-PDC line was cultured in 6C/Colon 1B media containing advanced DMEM/F-12 (Thermo Fisher Scientific, cat. 12634028), 10 mM HEPES (Thermo Fisher Scientific, cat. 15630080), 1X GlutaMAX supplement (Thermo Fisher Scientific, cat. 35050061), 0.1 mg/mL primocin (InvivoGen, San Diego, CA, cat. ant-pm-2), 10% defined fetal bovine serum, heat inactivated (HyClone Laboratories Inc., Logan, UT, cat. SH30070.03HI), 50% L-WRN conditioned media (ATCC, cat. CRL-3276), 1.25 mM N-Acetyl-L-cysteine (Sigma-Aldrich, cat. A9165), 10 mM nicotinamide (Sigma-Aldrich, cat. N0636), 1X B-27 supplement (Thermo Fisher Scientific, cat. 17504044), 1X N-2 supplement (Thermo Fisher Scientific, cat. […]

[1] = second compound 0.0316 µM, first compound 0.0316 µM
[2] = second compound 0.0316 µM, first compound 0.1 µM
[3] = second compound 0.0316 µM, first compound 0.316 µM
[4] = second compound 0.0316 µM, first compound 1 µM
[5] = second compound 0.0316 µM, first compound 3.16 µM
[6] = second compound 0.0316 µM, first compound 10 µM
[7] = second compound 0.1 µM, first compound 0.0316 µM
[8] = second compound 0.1 µM, first compound 0.1 µM
[9] = second compound 0.1 µM, first compound 0.316 µM
[10] = second compound 0.1 µM, first compound 1 µM
[11] = second compound 0.1 µM, first compound 3.16 µM
[12] = second compound 0.1 µM, first compound 10 µM
[13] = second compound 0.316 µM, first compound 0.0316 µM
[14] = second compound 0.316 µM, first compound 0.1 µM
[15] = second compound 0.316 µM, first compound 0.316 µM
[16] = second compound 0.316 µM, first compound 1 µM
[17] = second compound 0.316 µM, first compound 3.16 µM
[18] = second compound 0.316 µM, first compound 10 µM
[19] = second compound 1 µM, first compound 0.0316 µM
[20] = second compound 1 µM, first compound 0.1 µM
[21] = second compound 1 µM, first compound 0.316 µM
[22] = second compound 1 µM, first compound 1 µM
[23] = second compound 1 µM, first compound 3.16 µM
[24] = second compound 1 µM, first compound 10 µM
[25] = second compound 3.16 µM, first compound 0.0316 µM
[26] = second compound 3.16 µM, first compound 0.1 µM
[27] = second compound 3.16 µM, first compound 0.316 µM
[28] = second compound 3.16 µM, first compound 1 µM
[29] = second compound 3.16 µM, first compound 3.16 µM
[30] = second compound 3.16 µM, first compound 10 µM
[31] = second compound 10 µM, first compound 0.0316 µM
[32] = second compound 10 µM, first compound 0.1 µM
[33] = second compound 10 µM, first compound 0.316 µM
[34] = second compound 10 µM, first compound 1 µM
[35] = second compound 10 µM, first compound 3.16 µM
[36] = second compound 10 µM, first compound 10 µM
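Further: spheroids exposed to drugs for 7 days.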
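Wherever viability, T/C is given: 100% = DMSO vehicle treated spheroids.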

`COc1ccc([C@@H](O)c2cc(-c3ncnc4cc(N5CCOCC5)ccc34)c(F)cc2Cl)nn1` + COC1C(OC(N)=O)C(O)C(Oc2ccc3c(O)c(NC(=O)c4ccc(O)c(CC=C(C)C)c4)c(=O)oc3c2C)OC1(C)C gave an IC50 (second compound 0.0316 µM) of 4.18 µM, an IC50 (second compound 0.1 µM) of 2.2 µM and an IC50 (second compound 0.316 µM) of 4.88 µM. The IC50 (second compound 1 µM) was 6.13 µM, the IC50 (second compound 3.16 µM) was 7.07 µM and the IC50 (second compound 10 µM) was 9.07 µM. For the same compound, the viability, T/C [1] was 101%, the viability, T/C [2] was 83% and the viability, T/C [3] was 83.5%. It also gave a viability, T/C [4] of 78.8%, a viability, T/C [5] of 49.4% and a viability, T/C [6] of 36.5%. For the same compound, the viability, T/C [7] was 107%, the viability, T/C [8] was 74.5% and the viability, T/C [9] was 93%. The viability, T/C [10] was 73.5%, the viability, T/C [11] was 36.7% and the viability, T/C [12] was 41.8%. For the same compound, the viability, T/C [13] was 93.3%, the viability, T/C [14] was 107% and the viability, T/C [15] was 85.8%. For the same compound, the viability, T/C [16] was 64%, the viability, T/C [17] was 62.3% and the viability, T/C [18] was 39.6%. It also gave a viability, T/C [19] of 128%, a viability, T/C [20] of 90.6% and a viability, T/C [21] of 70.6%. It also gave a viability, T/C [22] of 68.7%, a viability, T/C [23] of 76% and a viability, T/C [24] of 39.5%. It also gave a viability, T/C [25] of 91.7%, a viability, T/C [26] of 88.7% and a viability, T/C [27] of 96.1%. It also gave a viability, T/C [28] of 70.5%, a viability, T/C [29] of 62.6% and a viability, T/C [30] of 44.9%. The viability, T/C [31] was 103%, the viability, T/C [32] was 90.4% and the viability, T/C [33] was 71.9%. For the same compound, the viability, T/C [34] was 65.5%, the viability, T/C [35] was 60% and the viability, T/C [36] was 47.4%.
`O=C(Nc1ccc(O)c(NS(=O)(=O)c2ccc(F)cc2)c1)c1ccc(-c2ccccc2)cc1` + COC1C(OC(N)=O)C(O)C(Oc2ccc3c(O)c(NC(=O)c4ccc(O)c(CC=C(C)C)c4)c(=O)oc3c2C)OC1(C)C was tested, and the IC50 (second compound 0.0316 µM) was 6.64 µM, the IC50 (second compound 0.1 µM) was 6.29 µM and the IC50 (second compound 0.316 µM) was 6.09 µM. It also gave an IC50 (second compound 1 µM) of 6.3 µM, an IC50 (second compound 3.16 µM) of 5.45 µM and an IC50 (second compound 10 µM) of 4.58 µM. For the same compound, the viability, T/C [1] was 87.9%, the viability, T/C [2] was 103% and the viability, T/C [3] was 101%. The viability, T/C [4] was 111%, the viability, T/C [5] was 93% and the viability, T/C [6] was 25.9%. The viability, T/C [7] was 96%, the viability, T/C [8] was 105% and the viability, T/C [9] was 80.2%. It also gave a viability, T/C [10] of 94.4%, a viability, T/C [11] of 82.6% and a viability, T/C [12] of 27.9%. The viability, T/C [13] was 99%, the viability, T/C [14] was 123% and the viability, T/C [15] was 84.3%. The viability, T/C [16] was 87.3%, the viability, T/C [17] was 85.1% and the viability, T/C [18] was 27.6%. It also gave a viability, T/C [19] of 100%, a viability, T/C [20] of 81.8% and a viability, T/C [21] of 109%. The viability, T/C [22] was 111%, the viability, T/C [23] was 78% and the viability, T/C [24] was 31.1%. The viability, T/C [25] was 97.8%, the viability, T/C [26] was 103% and the viability, T/C [27] was 92.3%. It also gave a viability, T/C [28] of 83.5%, a viability, T/C [29] of 66.2% and a viability, T/C [30] of 32.4%. For the same compound, the viability, T/C [31] was 82.2%, the viability, T/C [32] was 102% and the viability, T/C [33] was 84.5%. It also gave a viability, T/C [34] of 129%, a viability, T/C [35] of 60.1% and a viability, T/C [36] of 28.5%.
